One experiment addresses MAPK14 (human) (UniProt Q16539). As to the kind of experiment: LPS Induced TNF-alpha Production Inhibition (THP1 Cells).
Another experiment deals with MAPK14 (Balb/c mice). As to the kind of experiment: LPS Induced TNF-alpha Prodcution Inhibition (BALB/c Mice). The settings on record: dose or concentration not given here.

This note sets out measurements from the Kinase Knowledgebase extract (Sharma et al. 2016).

Sequence of MAPK14 (human) (Q16539 whole entry, looked up): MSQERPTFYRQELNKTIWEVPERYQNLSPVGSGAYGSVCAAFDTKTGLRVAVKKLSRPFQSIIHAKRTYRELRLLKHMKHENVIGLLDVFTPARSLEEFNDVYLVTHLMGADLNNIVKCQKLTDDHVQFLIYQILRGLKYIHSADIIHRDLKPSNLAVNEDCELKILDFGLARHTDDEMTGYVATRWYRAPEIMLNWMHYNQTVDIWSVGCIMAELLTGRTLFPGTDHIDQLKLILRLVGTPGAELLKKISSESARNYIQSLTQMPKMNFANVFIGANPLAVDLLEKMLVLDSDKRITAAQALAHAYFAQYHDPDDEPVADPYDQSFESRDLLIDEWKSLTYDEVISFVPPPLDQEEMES

With `OCCNc1cc(-c2[nH]c3nccnc3c2-c2ccc(F)cc2)ccn1`, on MAPK14 (human), the IC50 (usually the concentration at which inhibition is half-maximal) amounted to 241 nM.
On MAPK14 (human), `N#CCCCn1c(-c2ccncc2)c(-c2ccc(F)cc2)c2nccnc21` yielded an IC50 of 8830 nM. Compared with the last compound, the IC50 is about 37-fold higher.
As for `Fc1ccc(-c2c(-c3ccncc3)n(OCCN3CCOCC3)c3cccnc23)cc1`, in the experiment with MAPK14 (Balb/c mice), the inhibition (as a rule, the share of the control response that was lost under treatment) amounted to 56%.
On to `Fc1ccc(-c2c(-c3ccncc3)n(CCN3CCCCC3)c3cccnc23)cc1`, for which the concentration for half-maximal inhibition (IC50) against MAPK14 (human) was determined as 0.3 nM.
Regarding `Fc1ccc(-c2c(-c3ccncc3)[nH]c3cccnc23)cc1`, the inhibition in the experiment on MAPK14 (Balb/c mice) is 68%.
`Fc1ccc(-c2c(-c3ccncc3)[nH]c3nccnc23)cc1` yielded an IC50 on MAPK14 (human) of 1100 nM.
Compound `COn1c(-c2ccncc2)c(-c2ccc(F)cc2)c2ncccc21` registered an IC50 on MAPK14 (human) of 0.46 nM. For the same compound, the inhibition with MAPK14 (Balb/c mice) was determined as 75%.
In the case of `Fc1ccc(-c2c(-c3ccncc3)n(OCCN3CCCC3)c3cccnc23)cc1`, the IC50 at MAPK14 (human) was 0.12 nM. That is a sub-nanomolar value.
In the case of `Fc1ccc(-c2c(-c3ccncc3)oc3cccnc23)cc1`, the inhibition in the experiment on MAPK14 (Balb/c mice) worked out at 86%.
